Measured values published in ChEMBL document CHEMBL5331140, “Discovery of IACS-52825, a Potent and Selective DLK Inhibitor for Treatment of Chemotherapy-Induced Peripheral Neuropathy” (J Med Chem, 2023).
pIC50, pKd: −log10 of the molar value. Values belong to the molecule of their own block, whether it stands above or below them. Activity calls are given as the source filed them.

Legend:
[1] = Binding affinity to full length human DLK (1 to 859 residues)/NFkappaB DNA binding domain (unknown origin) fusion protein transfected in HEK293 cells assessed as dissociation constant incubated for 1 hr by Kinomescan assay; type: cell-based
[2] = Metabolic stability in rat liver microsomes assessed as intrinsic clearance at 1 uM in presence of NADPH regenerating system measured for 45 mins by LC-MS/MS analysis; type: ADME, Microsome; conditions: read-out: CLH
[3] = Half life in C57BL/6 mouse at 0.3 mg/kg, iv measured for 24 hrs by LC-MS/MS analysis; type: ADME, organism-based; conditions: in vivo
[4] = Metabolic stability in mouse liver microsomes assessed as intrinsic clearance at 1 uM in presence of NADPH regenerating system measured for 45 mins by LC-MS/MS analysis; type: ADME, Microsome; conditions: read-out: CLH
[5] = Ratio of unbound drug concentration in C57BL/6 mouse brain to plasma at 0.3 mg/kg, iv measured for 24 hrs by LC-MS/MS analysis; type: ADME, organism-based; conditions: brain and plasma, read-out: K(p,uu,brain)
[6] = Metabolic stability in human liver microsomes assessed as intrinsic clearance at 1 uM in presence of NADPH regenerating system measured for 45 mins by LC-MS/MS analysis; type: ADME, Microsome; conditions: read-out: CLH
[7] = Half life in cynomolgus monkey at 1 mg/kg, po or 0.3 mg/kg, iv measured for 24 hrs by LC-MS/MS analysis; type: ADME, organism-based, Macaca fascicularis; conditions: in vivo
[8] = Half life in Beagle dog at 1 mg/kg, po or 0.3 mg/kg, iv measured for 24 hrs by LC-MS/MS analysis; type: ADME, organism-based, Canis lupus familiaris; conditions: in vivo
[9] = Oral bioavailability in Sprague-Dawley rat at 3 mg/kg administered via oral gavage and measured for 24 hrs by LC-MS/MS analysis; type: ADME, organism-based; conditions: in vivo
[10] = Oral bioavailability in C57BL/6 mouse at 10 mg/kg administered via oral gavage and measured for 24 hrs by LC-MS/MS analysis; type: ADME, organism-based; conditions: in vivo; for bioavailability: C57BL/6, mouse
[11] = Oral bioavailability in cynomolgus monkey at 1 mg/kg administered via nasal gavage measured for 24 hrs by LC-MS/MS analysis; type: ADME, organism-based, Macaca fascicularis; conditions: in vivo
[12] = Half life in Sprague-Dawley rat at 3 mg/kg, po or 0.3 mg/kg, iv measured for 24 hrs by LC-MS/MS analysis; type: ADME, organism-based; conditions: in vivo
[13] = Oral bioavailability in Beagle dog at 1 mg/kg administered via oral gavage and measured for 24 hrs by LC-MS/MS analysis; type: ADME, organism-based, Canis lupus familiaris; conditions: in vivo
[14] = AUClast in C57BL/6 mouse at 10 mg/kg administered via oral gavage and measured for 24 hrs by LC-MS/MS analysis; type: ADME, organism-based; parameters: time 24 hrs, dose 10 mg/kg, route po; conditions: in vivo
[15] = Volume of distribution at steady state in C57BL/6 mouse at 0.3 mg/kg, iv administered via tail vein and measured for 24 hrs by LC-MS/MS analysis; type: ADME, organism-based; conditions: in vivo, read-out: Vdss
[16] = Cmax in C57BL/6 mouse at 10 mg/kg administered via oral gavage and measured for 24 hrs by LC-MS/MS analysis; type: ADME, organism-based; parameters: dose 10 mg/kg, time 24 hrs, route po; conditions: in vivo
[17] = target: T1, Mitogen-activated protein kinase kinase kinase 12 (Homo sapiens, UniProt Q12852); experiment: Inhibition of doxycycline-inducible human DLK transfected in HEK293 cells assessed as reduction in c-Jun phosphorylation at Ser63 residue incubated for 5 hrs; type: cell-based
T1 sequence (Q12852 whole entry): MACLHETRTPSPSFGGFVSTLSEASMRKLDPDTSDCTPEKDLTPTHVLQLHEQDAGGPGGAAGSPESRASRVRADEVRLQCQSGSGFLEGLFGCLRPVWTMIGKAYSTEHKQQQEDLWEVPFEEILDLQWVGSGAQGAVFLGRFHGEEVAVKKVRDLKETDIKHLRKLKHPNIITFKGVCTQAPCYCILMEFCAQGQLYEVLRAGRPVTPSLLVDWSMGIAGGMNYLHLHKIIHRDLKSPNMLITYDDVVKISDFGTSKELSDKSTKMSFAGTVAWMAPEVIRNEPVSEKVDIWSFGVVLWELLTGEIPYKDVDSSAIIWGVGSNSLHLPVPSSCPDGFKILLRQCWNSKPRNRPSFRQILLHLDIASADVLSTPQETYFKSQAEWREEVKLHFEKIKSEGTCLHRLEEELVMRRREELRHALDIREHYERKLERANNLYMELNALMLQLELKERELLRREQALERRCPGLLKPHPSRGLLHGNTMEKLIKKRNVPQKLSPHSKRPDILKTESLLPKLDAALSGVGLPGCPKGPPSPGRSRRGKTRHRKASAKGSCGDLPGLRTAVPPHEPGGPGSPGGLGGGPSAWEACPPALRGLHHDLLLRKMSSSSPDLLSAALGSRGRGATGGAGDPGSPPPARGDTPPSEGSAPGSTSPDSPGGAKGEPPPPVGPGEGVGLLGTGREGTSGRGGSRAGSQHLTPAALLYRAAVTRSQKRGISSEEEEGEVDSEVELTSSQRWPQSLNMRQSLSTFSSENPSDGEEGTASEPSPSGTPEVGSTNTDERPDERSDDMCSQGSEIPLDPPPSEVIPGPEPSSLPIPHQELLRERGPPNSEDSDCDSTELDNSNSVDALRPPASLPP

[18] = Half life in C57BL/6 mouse at 0.3 mg/kg, iv administered via tail vein and measured for 24 hrs by LC-MS/MS analysis; type: ADME, organism-based; conditions: in vivo
[19] = Toxicity in rat by GLP toxicity study; conditions: in vivo
[20] = target: T2, Dual specificity mitogen-activated protein kinase kinase 5 (Homo sapiens) (UniProt Q13163); experiment: Inhibition of MEK5 (unknown origin) at 1 uM relative to control
T2 sequence (whole entry): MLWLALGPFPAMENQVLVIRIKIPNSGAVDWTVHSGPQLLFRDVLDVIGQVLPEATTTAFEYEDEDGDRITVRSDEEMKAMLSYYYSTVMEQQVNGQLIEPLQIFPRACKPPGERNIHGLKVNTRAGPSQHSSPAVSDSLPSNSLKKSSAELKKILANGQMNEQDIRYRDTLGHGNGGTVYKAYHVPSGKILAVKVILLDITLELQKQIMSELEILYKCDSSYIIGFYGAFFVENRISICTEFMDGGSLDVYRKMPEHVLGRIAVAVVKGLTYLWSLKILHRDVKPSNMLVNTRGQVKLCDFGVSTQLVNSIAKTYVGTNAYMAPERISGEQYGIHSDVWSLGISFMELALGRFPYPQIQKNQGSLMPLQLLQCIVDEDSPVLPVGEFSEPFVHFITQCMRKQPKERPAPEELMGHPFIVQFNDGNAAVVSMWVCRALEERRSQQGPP

Mus musculus [21] = experiment: Antiallodynic activity in cisplatin-induced mechanical allodynia C57BL/6 mouse model assessed as increase in paw withdrawal threshold at 30 mg/kg, po stimulated with cisplatin on day 1 to 5 and 10 to 15 followed by daily administration of compound from day 6 to 16 and measured for 30 days by von frey test; type: functional, organism-based; conditions: time 25.0 day
Mus musculus [22] = experiment: Antiallodynic activity in cisplatin-induced mechanical allodynia C57BL/6 mouse model assessed as increase in paw withdrawal threshold at 30 mg/kg, po stimulated with cisplatin on day 1 to 5 and 10 to 15 followed by daily administration of compound from day 16 and measured for 35 days by von frey test; type: functional, organism-based; conditions: time 20.0 day
[23] = target: Voltage-gated inwardly rectifying potassium channel KCNH2 (Homo sapiens, UniProt Q12809)
Sequence of Voltage-gated inwardly rectifying potassium channel KCNH2 (Q12809 whole entry): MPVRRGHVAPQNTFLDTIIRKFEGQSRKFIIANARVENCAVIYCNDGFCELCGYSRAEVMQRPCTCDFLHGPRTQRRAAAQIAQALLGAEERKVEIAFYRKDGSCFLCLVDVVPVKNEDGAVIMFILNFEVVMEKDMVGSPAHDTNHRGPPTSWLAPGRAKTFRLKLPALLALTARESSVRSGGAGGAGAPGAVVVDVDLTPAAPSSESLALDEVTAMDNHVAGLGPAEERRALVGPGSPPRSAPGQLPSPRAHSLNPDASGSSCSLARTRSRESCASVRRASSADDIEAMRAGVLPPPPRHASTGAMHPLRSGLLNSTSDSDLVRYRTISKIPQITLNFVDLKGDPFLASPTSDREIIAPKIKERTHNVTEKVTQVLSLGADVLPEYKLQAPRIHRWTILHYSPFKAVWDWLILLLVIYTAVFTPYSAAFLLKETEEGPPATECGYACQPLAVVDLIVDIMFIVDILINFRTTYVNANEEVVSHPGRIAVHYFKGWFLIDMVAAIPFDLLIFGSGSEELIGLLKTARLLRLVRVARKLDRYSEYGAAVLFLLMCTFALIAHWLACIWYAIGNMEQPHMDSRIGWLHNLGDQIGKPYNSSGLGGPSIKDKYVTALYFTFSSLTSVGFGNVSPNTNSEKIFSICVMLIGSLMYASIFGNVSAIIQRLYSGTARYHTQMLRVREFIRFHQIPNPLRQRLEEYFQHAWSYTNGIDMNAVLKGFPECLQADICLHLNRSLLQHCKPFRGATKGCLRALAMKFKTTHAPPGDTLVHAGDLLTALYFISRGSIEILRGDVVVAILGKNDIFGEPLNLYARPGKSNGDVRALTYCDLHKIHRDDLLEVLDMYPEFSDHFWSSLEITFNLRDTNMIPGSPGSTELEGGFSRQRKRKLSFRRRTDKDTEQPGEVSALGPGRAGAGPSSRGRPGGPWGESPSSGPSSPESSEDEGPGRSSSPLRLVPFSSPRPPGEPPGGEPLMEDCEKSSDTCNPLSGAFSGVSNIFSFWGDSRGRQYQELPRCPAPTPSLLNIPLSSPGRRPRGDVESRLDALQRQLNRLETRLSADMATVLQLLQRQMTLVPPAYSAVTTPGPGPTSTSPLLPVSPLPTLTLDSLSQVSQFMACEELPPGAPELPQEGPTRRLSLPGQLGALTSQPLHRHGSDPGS
Description: Inhibition of hERG expressed in CHO cells at -80 mV holding potential by QPatch automated electrophysiology assay

Compound: CC(C)c1nc(-c2cnc(N)c(C(F)(F)F)c2)cn1C1CC1
pKd [1]: 6.89

Compound: CC(C)c1nc(-c2cnc(N)c(C(F)(F)F)c2)cn1C1CCC1
pKd [1]: 7.18
CLint scaled at 1 µM [2]: 133 mL/min/kg
CLint scaled at 1 µM [4]: 789 mL/min/kg
CLint scaled at 1 µM [6]: 233 mL/min/kg

Compound: Nc1ncc(-c2cc([C@H]3[C@@H]4CN(C5COC5)C[C@@H]43)n(CC3CC3)n2)cc1C(F)(F)F
pKd [1]: 7.89

Compound: Nc1ncc(-c2cn(C34CC(N5CCOCC5)(C3)C4)c(C3CC3)n2)cc1OC(F)(F)F
half-life [7]: 4.6 h
half-life [8]: 10.5 h
CLint scaled at 1 µM [2]: 12 mL/min/kg
bioavailability [9]: > 100%
bioavailability [10]: > 100%
half-life [3]: 3.5 h
bioavailability [11]: 66%
CLint scaled at 1 µM [4]: 12 mL/min/kg
Kp uu at 24 h [5]: 0.73
CLint scaled at 1 µM [6]: 2 mL/min/kg
half-life [12]: 3.4 h
bioavailability [13]: 77%

Compound: CC(C)C(O)c1nc(-c2cnc(N)c(OC(F)(F)F)c2)cn1C12CC(C1)C2 (centres undefined)
pKd [1]: 9.22
CLint scaled at 1 µM [2]: 91 mL/min/kg
CLint scaled at 1 µM [6]: 35 mL/min/kg

Compound: Nc1ncc(-c2cn(C34CC(C3)C4)c([C@@H](O)C(F)(F)F)n2)cc1OC(F)(F)F
pKd [1]: 8.92
AUClast [14]: 14.4 µM·h
Vd [15]: 4.6 L/kg
CLint scaled at 1 µM [2]: 32 mL/min/kg
F ([10]; mouse, po, 10 mg/kg, 24 h): 51%
CLint scaled at 1 µM [4]: 26 mL/min/kg
Cmax [16]: 2000 nM
pIC50 [17]: 7.32
Kp uu at 24 h [5]: 1.1
CLint scaled at 1 µM [6]: 14 mL/min/kg
half-life [18]: 3.5 h

Compound: CC(C)n1nc(-c2cnc(N)c(C(F)(F)F)c2)cc1C1CC1
pKd [1]: 6.96

Compound: CC(C)c1nc(-c2cnc(N)c(C(F)(F)F)c2)cn1C1CCCC1
pKd [1]: 6.65
CLint scaled at 1 µM [2]: 238 mL/min/kg
CLint scaled at 1 µM [4]: 2670 mL/min/kg
CLint scaled at 1 µM [6]: 362 mL/min/kg

Compound: Nc1ncc(-c2cn([C@H]3[C@@H]4CN(C5COC5)C[C@@H]43)c(CC3CC3)n2)cc1C(F)(F)F
pKd [1]: 7.20

Compound: CC(C)c1nc(-c2cnc(N)c(C(F)(F)F)c2)cn1C12CC(C1)C2
pKd [1]: 7.31
CLint scaled at 1 µM [2]: 69 mL/min/kg
CLint scaled at 1 µM [4]: 199 mL/min/kg
CLint scaled at 1 µM [6]: 168 mL/min/kg

Compound: Nc1ncc(-c2cn(C34CC(N5CCOCC5)(C3)C4)c(CC3CC3)n2)cc1C(F)(F)F
CLint scaled at 1 µM [2]: 5 mL/min/kg
CLint scaled at 1 µM [6]: 6 mL/min/kg

The next lines start with results.

CLint scaled at 1 µM [2]: 10 mL/min/kg
half-life [3]: 3.8 h
CLint scaled at 1 µM [4]: 16 mL/min/kg
Kp uu at 24 h [5]: 0.34
CLint scaled at 1 µM [6]: 5 mL/min/kg
Compound: Nc1ncc(-c2cn(C34CC(N5CCOCC5)(C3)C4)c(C3CC3)n2)cc1C(F)(F)F
pKd [1]: 7.89

CLint scaled at 1 µM [2]: 11 mL/min/kg
CLint scaled at 1 µM [6]: 9 mL/min/kg
Compound: CC(C)Cc1nc(-c2cnc(N)c(C(F)(F)F)c2)cn1C12CC(N3CCOCC3)(C1)C2
pKd [1]: 8.21

CLint scaled at 1 µM [2]: 1 mL/min/kg
CLint scaled at 1 µM [4]: 3 mL/min/kg
Kp uu at 24 h [5]: 0.2
CLint scaled at 1 µM [6]: 22 mL/min/kg
Compound: CC(C)[C@H](O)c1nc(-c2cnc(N)c(OC(F)(F)F)c2)cn1C12CC(N3CCOCC3)(C1)C2
pKd [1]: 9.40

half-life [3]: 3.3 h
CLint scaled at 1 µM [4]: 6 mL/min/kg
Kp uu at 24 h [5]: 0.14
CLint scaled at 1 µM [6]: 7 mL/min/kg
Compound: CC(C)c1nc(-c2cnc(N)c(C(F)(F)F)c2)cn1C12CC(N3CCOCC3)(C1)C2
pKd [1]: 7.92

inhibition [20]: 16%
half-life [7]: 6.3 h
half-life [8]: 22.9 h
CLint scaled at 1 µM [2]: 6 mL/min/kg
bioavailability [9]: > 100%
bioavailability [10]: > 100%
half-life [3]: 3.5 h
bioavailability [11]: 64%
CLint scaled at 1 µM [4]: 9 mL/min/kg
Kp uu at 24 h [5]: 0.6
CLint scaled at 1 µM [6]: 9 mL/min/kg
half-life [12]: 7 h
bioavailability [13]: 80%
Compound: CC(C)c1nc(-c2cnc(N)c(OC(F)(F)F)c2)cn1C12CC(N3CCOCC3)(C1)C2
pKd [1]: 7.85
Activity [19]: Toxic
Activity (Mus musculus [21]): Active
Activity (Mus musculus [22]): Active
pIC50 [23]: < 4.52

CLint scaled at 1 µM [2]: 43 mL/min/kg
CLint scaled at 1 µM [6]: 14 mL/min/kg
Compound: CC(C)(C)Cc1nc(-c2cnc(N)c(C(F)(F)F)c2)cn1C12CC(N3CCOCC3)(C1)C2
pKd [1]: 7.18
